# Source: patent US10072023B2, “Diarylethene compounds and uses thereof” (SWITCH MATERIALS, INC., priority 2011, dated 2018)
# Assay: Absorbance at photostationary state (PSS) under simulated sunlight or 365 nm light
# Assay type: physicochemical
# Parameters: λ max: unit not given here
# Settings: for Absorbance at PSS, 365 nm: 365 nm light source; for Absorbance at PSS, 365 nm / Absorbance at PSS, full / Absorbance at PSS, +UV / λ max: 2.0×10^−5 M in triglyme; for sensitivity index: ratio of PSS under 365 nm light to PSS under full spectrum light (without UV blocking film); for Absorbance at PSS, full: simulated sunlight (QSUN solar simulator), no UV blocking film; for Absorbance at PSS, +UV: simulated sunlight with UV blocking film (cutoff 370 nm); for λ max: wavelength of maximum absorbance in the visible range, ring-closed isoform
# Protocol: Absorbance at a PSS for selected compounds was measured at 2.0×10^−5 M in triglyme in the absence (full) or presence (+UV) of a UV blocking film with a UV cutoff wavelength of 370 nm (10% transmission at 370 nm), using simulated sunlight (QSUN solar simulator) as a light source, or a 365 nm light source; these PSS are reported in Tables 1.5. […] “Switch” refers to the ability (yes or no) of the compound to be reversibly converted under photochromic and electrochromic conditions between a ring-open isomer and ring-closed isomer.
# A sensitivity index (SI) is a ratio of the PSS under 365 nm light to the PSS under full spectrum light (without UV blocking film). SI is an indicator of the sensitivity of the compound to the composition of the incident light (a change in the ratio of UV and visible components)—photochemical ring-opening is induced by a portion of the visible light spectrum.
# Photostationary State (PSS) UV/Vis spectra are obtained using an OceanOptics™ Spectrophotometer until absorption in the visible region of the spectrum stabilizes. A 2×10^−5M solution of compound in solvent is prepared, and photofaded using visible light until absorption in the visible region of the spectrum stabilizes. The sample is then irradiated with simulated sunlight (QSUN SS-150 Solar Simulator with xenon arc lamp) until the absorption spectrum stabilizes. To obtain PSS in the presence of a UV blocking film, a second sample is prepared and irradiated as described, with a UV blocking film inserted in the light path when irradiating.
SMILES,"Absorbance at PSS, 365 nm",sensitivity index,"Absorbance at PSS, full","Absorbance at PSS, +UV",λ max
"COc1ccc(-c2cc(C3=C(c4cc(-c5ccc(C#N)cc5)sc4-c4ccc(OC)cc4)C(F)(F)C(F)(F)C3(F)F)c(-c3ccc(C#N)cc3)s2)cc1 [S087, 4-(3-(2-(5-(4-cyanophenyl)-2-(4-methoxyphenyl)thiophen-3-yl)-3,3,4,4,5,5-hexafluorocyclopent-1-en-1-yl)-5-(4-methoxyphenyl)thiophen-2-yl)benzonitrile]",0.209,1.92,0.109,0.055,628
CC(C)(C)c1ccc(-c2cc(C3=C(c4cc(-c5ccc(C(C)(C)C)s5)sc4-c4ccc(C(=O)O)s4)C(F)(F)C(F)(F)C3(F)F)c(-c3ccc(C(=O)O)s3)s2)s1 [S119],0.405,–,0.343,0.295,–
CC(C)(C)c1ccc(-c2cc(C3=C(c4cc(-c5ccc(C(C)(C)C)s5)sc4-c4ccc(O[Si](O[Si](C)(C)C)(O[Si](C)(C)C)O[Si](C)(C)C)cc4)C(F)(F)C(F)(F)C3(F)F)c(-c3ccc(O[Si](O[Si](C)(C)C)(O[Si](C)(C)C)O[Si](C)(C)C)cc3)s2)s1 [S118],0.34,1.52,0.223,0.124,648
"CC(C)(C)c1ccc(-c2cc(C3=C(c4cc(-c5ccc(C(C)(C)C)s5)sc4-c4ccc(OCCCO)cc4)C(F)(F)C(F)(F)C3(F)F)c(-c3ccc(OCCCO)cc3)s2)s1 [S111, 3,3′-(4,4′-(4,4′-(perfluorocyclopent-1-ene-1,2-diyl)bis(5′-tert-butyl-2,2′-bithiophene-5,4-diyl))bis(4,1-phenylene)bis(oxy))dipropan-1-ol]",0.322,1.10,0.292,0.192,646
"FC1(F)C(c2cc(-c3ccccc3)sc2-c2ccccc2)=C(c2cc(-c3cccs3)sc2-c2cccs2)C(F)(F)C1(F)F [S005, 3′-(2-(2,5-diphenylthiophen-3-yl)-3,3,4,4,5,5-hexafluorocyclopent-1-en-1-yl)-2,2′:5′,2″-terthiophene]",0.195,2.71,0.072,0.028,618
"FC1(F)C(c2cc(-c3ccc(/C=C/c4ccccc4)s3)sc2-c2cccs2)=C(c2cc(-c3ccc(/C=C/c4ccccc4)s3)sc2-c2cccs2)C(F)(F)C1(F)F [S038, (E)-4′,4″″-(perfluorocyclopent-1-ene-1,2-diyl)bis(5-((E)-styryl)-2,2′:5′,2″-terthiophene)]",0.642,1.41,0.456,0.431,690
"CC(C)(C)c1ccc(-c2oc3cc(O)ccc3c2C2=C(c3c(-c4ccc(C(C)(C)C)cc4)oc4cc(O)ccc34)C(F)(F)C(F)(F)C2(F)F)cc1 [S162, 3,3′-(perfluorocyclopent-1-ene-1,2-diyl)bis(2-(4-(tert-butyl)phenyl)benzofuran-6-ol)]",0.398,3.34,0.119,0.06,520
"CC(C)(C)COc1ccc(-c2cc(C3=C(c4cc(-c5ccc(OCC(C)(C)C)cc5)sc4-c4ccc(OCC(C)(C)C)cc4)C(F)(F)C(F)(F)C3(F)F)c(-c3ccc(OCC(C)(C)C)cc3)s2)cc1 [S095, 3,3′-(perfluorocyclopent-1-ene-1,2-diyl)bis(2,5-bis(4-(neopentyloxy)phenyl)thiophene)]",0.279,1.74,0.16,0.086,625
"COc1ccc(-c2sc(-c3ccc(/C=C/C=C/c4ccccc4)cc3)cc2C2=C(c3cc(-c4ccc(/C=C/C=C/c5ccccc5)cc4)sc3-c3ccc(OC)cc3)C(F)(F)C(F)(F)C2(F)F)cc1 [S089, 3,3′-(perfluorocyclopent-1-ene-1,2-diyl)bis(2-(4-methoxyphenyl)-5-(4-((1E,3E)-4-phenylbuta-1,3-dien-1-yl)phenyl)thiophene)]",0.564,4.12,0.137,0.126,656
"FC1(F)C(c2nc(-c3ccccc3)sc2-c2ccccc2)=C(c2nc(-c3ccccc3)sc2-c2ccccc2)C(F)(F)C1(F)F [S035, 4,4′-(perfluorocyclopent-1-ene-1,2-diyl)bis(2,5-diphenylthiazole)]",0.416,8.32,0.05,0.016,540
"CC(C)(C)c1ccc(-c2oc3cc4c(cc3c2C2=C(c3c(-c5ccc(C(C)(C)C)cc5)oc5cc6c(cc35)OCO6)C(F)(F)C(F)(F)C2(F)F)OCO4)cc1 [S163, 7,7′-(perfluorocyclopent-1-ene-1,2-diyl)bis(6-(4-(tert-butyl)phenyl)-[1,3]dioxolo[4,5-f]benzofuran)]",0.533,2.12,0.252,0.116,588
"C[Si](C)(C)c1ccc(-c2cc(C3=C(c4cc(-c5ccc([Si](C)(C)C)s5)sc4-c4ccc([Si](C)(C)C)s4)C(F)(F)C(F)(F)C3(F)F)c(-c3ccc([Si](C)(C)C)s3)s2)s1 [S135, 3′,3″″-(perfluorocyclopent-1-ene-1,2-diyl)bis(5,5″-bis(trimethylsilyl)-2,2′:5′,2″-terthiophene)]",0.387,1.22,0.318,0.224,648
"COc1ccc(-c2oc3cc(OC)ccc3c2C2=C(c3c(-c4ccc(OC)cc4)oc4cc(OC)ccc34)C(F)(F)C(F)(F)C2(F)F)cc1 [S140, 3,3′-(perfluorocyclopent-1-ene-1,2-diyl)bis(6-methoxy-2-(4-methoxyphenyl)benzofuran)]",0.276,4.25,0.065,0.032,516
"CC(C)Oc1ccc(-c2cc(C3=C(c4cc(-c5ccc(OC(C)C)cc5)sc4-c4ccc(OC(C)C)cc4)C(F)(F)C(F)(F)C3(F)F)c(-c3ccc(OC(C)C)cc3)s2)cc1 [S092, 3,3′-(perfluorocyclopent-1-ene-1,2-diyl)bis(2,5-bis(4-isopropoxyphenyl)thiophene)]",0.307,1.90,0.162,0.093,627
"Cc1ccc(-c2cc(C3=C(c4cc(-c5ccc(C)s5)sc4-c4ccc(C)s4)C(F)(F)C(F)(F)C3(F)F)c(-c3ccc(C)s3)s2)s1 [S007, 3′,3″″-(perfluorocyclopent-1-ene-1,2-diyl)bis(5,5″-dimethyl-2,2′:5′,2″-terthiophene)]",0.353,1.67,0.212,0.154,650
COc1ccc(-c2sc(-c3ccc(C#N)cc3)cc2C2=C(c3cc(-c4ccc(C#N)cc4)sc3-c3ccc(OC)cc3)C(F)(F)C(F)(F)C2(F)F)cc1 [S085],0.187,1.16,0.161,0.08,640
"CC(C)(C)c1ccc(-c2cc(C3=C(c4cc(-c5ccc(C(C)(C)C)s5)sc4-c4ccc(OCCCCC#N)cc4)C(F)(F)C(F)(F)C3(F)F)c(-c3ccc(OCCCCC#N)cc3)s2)s1 [S139, 5,5′-(((4,4″-(perfluorocyclopent-1-ene-1,2-diyl)bis(5′-(tert-butyl)-[2″,2″′-bithiophene]-5″,4-diyl))bis(4,1phenylene))bis(oxy))dipentanenitrile]",0.403,–,0.322,0.216,–
"COc1ccc(-c2cc(C3=C(c4cc(-c5ccc(OC)cc5)sc4-c4ccc(C#N)cc4)C(F)(F)C(F)(F)C3(F)F)c(-c3ccc(C#N)cc3)s2)cc1 [S086, 4,4′-(3,3′-(perfluorocyclopent-1-ene-1,2-diyl)bis(5-(4-methoxyphenyl)thiophene-3,2-diyl))dibenzonitrile]",0.231,2.01,0.115,0.071,610
"Cc1ccc(-c2oc3ccccc3c2C2=C(c3c(-c4ccc(C)s4)oc4ccccc34)C(F)(F)C(F)(F)C2(F)F)s1 [S137, 3,3′-(perfluorocyclopent-1-ene-1,2-diyl)bis(2-(5-methylthiophen-2-yl)benzofuran)]",0.15,4.55,0.033,0.016,497
